Experimental data reported in patent publication US5726155A, “Regulation of oxidative burst using LMWG-derived peptides and analogs” (The Scripps Research Institute, priority 1993, dated 1998).
Where no end group is shown, it is not given here.

Columns and labels:
NADPH oxidase [1] = molecular target: T1, NADPH oxidase (Homo sapiens, UniProt P04839+P13498+P14598+P19878); test: cell-free NADPH oxidase assay (O2- production), inhibition by peptides; format: biochemical; details: for Inhibitory Activity: Table 3, peptide incubated five minutes before 90 μM SDS or 100 μM arachidonic acid; for Percent Inhibition: cell-free system
T1 construct: 4×10^5 cell equivalents (cell eq) of neutrophil membranes; of neutrophil cytosol, or (2) 100 nM each of baculovirus recombinant p47-phox and p67-phox; from tissue; host or cells: neutrophil membranes and cytosol (human neutrophils, leukapheresis or blood)
Experimental: Production of O2^- by NADPH oxidase may be monitored in a cell-free system at 25° C. by following the superoxide dismutase (SOD)-inhibitable reduction of cytochrome c at […], as described in Curnutte, et al., PNAS USA 86: 825-829 (1989). The method may be described essentially as follows.
Activation of the dormant respiratory burst oxidase in a cell-free system by SDS in the presence of cytosol (or partially-purified cytosol factor components) was monitored by measuring O2^- production by the activated oxidase. O2^- generation was determined by a continuous assay in which superoxide dismutase-inhibitable cytochrome c reduction was followed with time at 25° C. in a double-beam spectrophotometer at 550 nm by a modification of the method described in Curnutte, et al., J. Biol. Chem. 262: 6450-6452 (1987). Assay mixtures contained (final concentration) 0.15 mM cytochrome c, 6.5 mM MgCl2, 87 mM KCl, 2.6 mM NaCl, 8.7 mM PIPES (pH 7.3), 0.27 mM ATP (Sigma), 0.33 mM EGTA, 0.16 mM NADPH, and 0.04 mM SDS, plus 0.9×10^7 cell eq of cytosol and 1.55×10^6 cell eq of membranes solubilized in deoxycholate (0.94 mM) in 375 μl. The reference cuvette also received 22.5 μg of superoxide dismutase. All components except NADPH were mixed in the cuvette and allowed to stand for 3.5 minutes to allow activation of the oxidase by SDS. Reactions were then started with NADPH and followed at 550 nm on a Uvikon 810 dual-beam recording spectrophotometer (Kontron, Zurich). Data were collected on a strip chart recorder and the maximal velocity of the reaction, which occurred during the first 20 sec, was used to calculate the oxidase activity.
A modification of the above-noted method was used for most of the studies described herein and may be summarized as follows. Reaction mixtures (generally, in 96-well microtiter plates) typically contain 0.1 mM cytochrome c, 6.5 mM MgCl2, 87 mM KCl, 2.6 mM NaCl, 8.7 mM PIPES (pH 7.3), 10 μM GTPγS, 0.16 mM NADPH, and 4×10^5 cell equivalents (cell eq) of neutrophil membranes (about 1.6 μg protein), in a total volume of 150 μl. In addition, reactions contain varying amounts of recombinant LMWG protein, and either (1) 8 μl (7.2×10^5 cell eq.; about 18 μg protein) of neutrophil cytosol, or (2) 100 nM each of baculovirus recombinant p47-phox and p67-phox as specified herein. Control wells (paired with each reaction well) contained 9 μg SOD, to account for non-O2^- -dependent reduction of cytochrome c. Superoxide production is initiated by the addition of SDS to give a final concentration of either 90 μM (with recombinant p47-phox/p67-phox) or 110 μM (with neutrophil cytosol). Maximum rates of absorbance change, calculated from the first derivative of the time course using Softmax software (Molecular Devices, release 2.01, Menlo Park, Calif., were converted to nmol O2^- generated/min/10^7 cell eq of membrane, after subtracting the rate achieved in the presence of SOD from that obtained in its absence, to give the rate of O2^- -dependent cytochrome c reduction, by using an extinction coefficient of 20.5 mM^-1 cm^-1 for reduced minus oxidized cytochrome c, a value determined experimentally for the 550±1-nm filter used in the kinetic microplate reader and the path length of the 250-μl reaction mixture. (See, e.g., Curnutte, et al., PNAS USA 86: 825-829 (1989).
Peptides were tested for oxidase inhibiting activity using the cell-free assay of Curnutte, et al. (PNAS USA 86: 825-829 (1989)). Peptides were added at indicated concentrations and incubated for five minutes at room temperature prior to initiation of O2^- formation using either 90 μM SDS or 100 μM arachidonic acid as an activating stimulus.

NADPH oxidase [2] = test: cell-free NADPH oxidase assay with GAP proteins; format: biochemical, human
Experimental: Subcellular fractions from human neutrophils for use in cell-free NADPH oxidase assays were prepared as described previously (Curnutte, et al., PNAS USA 86: 825-829 (1989)). Cell-free oxidase assays were conducted as described in Heyworth, et al., Mol. Biol. Cell 4: 261-269 (1993) and Curnutte, et al., Id. (1989). In order to deplete endogenous guanine nucleotides for some experiments, cytosol was dialyzed overnight against three 2-liter volumes of 100 mM KCl/3 mM NaCl/3.5 mM MgCl2 /10 mM PIPES, pH 7.3, as previously described (Peveri, et al., PNAS USA 89: 2494-2498 (1992)). Reaction mixtures contained 4×10^5 cell equivalents (cell eq) of human neutrophil membranes and 1.8×10^6cell eq of neutrophil cytosol. Reactions were performed in the absence of GTPγS, unless otherwise indicated (see FIGS. 3, 7, 8, and 9, and accompanying legends), and with the indicated concentrations of p190 GAP. Rates of O2^- production were calculated from maximum rates of absorbance change after initiation of the reaction with 110 μM SDS.

Rac2 protein = Rac2 protein (Homo sapiens, UniProt P15153); test: guanine nucleotide (GDP/GTP) exchange; format: biochemical; details: FIG. 4
Rap1A = molecular target: T2, Rap1A (Homo sapiens, UniProt P62834); test: guanine nucleotide (GDP/GTP) exchange; format: biochemical
T2 construct: Recombinant full length Rap1a, H-Ras, and CDC42Hs were purified after expression in a baculovirus/Sf9 insect cell system; made in house; host or cells: baculovirus/Sf9 insect cells
T2 sequence (P62834 1-184): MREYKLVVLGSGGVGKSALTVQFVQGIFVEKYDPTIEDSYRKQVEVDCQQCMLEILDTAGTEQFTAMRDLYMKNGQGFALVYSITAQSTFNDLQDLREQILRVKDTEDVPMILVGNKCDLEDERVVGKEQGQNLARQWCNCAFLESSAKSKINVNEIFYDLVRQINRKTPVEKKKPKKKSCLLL

T1 sequence (P04839 2-570 limits assumed): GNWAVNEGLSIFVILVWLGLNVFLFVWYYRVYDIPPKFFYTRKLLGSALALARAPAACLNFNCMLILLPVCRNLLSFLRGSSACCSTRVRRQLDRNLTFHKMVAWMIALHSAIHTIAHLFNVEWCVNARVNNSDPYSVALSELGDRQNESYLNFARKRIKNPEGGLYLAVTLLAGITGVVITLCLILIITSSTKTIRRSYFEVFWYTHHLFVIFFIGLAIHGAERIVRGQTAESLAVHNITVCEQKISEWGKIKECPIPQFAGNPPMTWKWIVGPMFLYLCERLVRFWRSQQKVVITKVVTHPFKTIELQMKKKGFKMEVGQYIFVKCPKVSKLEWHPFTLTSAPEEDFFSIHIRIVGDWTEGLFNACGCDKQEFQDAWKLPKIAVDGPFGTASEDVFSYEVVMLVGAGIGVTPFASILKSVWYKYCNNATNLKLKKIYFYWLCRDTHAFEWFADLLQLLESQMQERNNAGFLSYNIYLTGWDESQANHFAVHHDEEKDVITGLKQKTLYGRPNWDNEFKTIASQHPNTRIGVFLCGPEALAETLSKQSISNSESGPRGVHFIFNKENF
T1 sequence (P13498 2-195 limits assumed): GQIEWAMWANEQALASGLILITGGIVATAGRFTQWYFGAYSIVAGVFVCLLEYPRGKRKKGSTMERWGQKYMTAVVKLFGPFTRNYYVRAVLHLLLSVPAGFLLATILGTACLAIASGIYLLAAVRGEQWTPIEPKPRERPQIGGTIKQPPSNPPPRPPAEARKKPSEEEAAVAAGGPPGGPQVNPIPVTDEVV
T1 sequence (P14598 whole entry): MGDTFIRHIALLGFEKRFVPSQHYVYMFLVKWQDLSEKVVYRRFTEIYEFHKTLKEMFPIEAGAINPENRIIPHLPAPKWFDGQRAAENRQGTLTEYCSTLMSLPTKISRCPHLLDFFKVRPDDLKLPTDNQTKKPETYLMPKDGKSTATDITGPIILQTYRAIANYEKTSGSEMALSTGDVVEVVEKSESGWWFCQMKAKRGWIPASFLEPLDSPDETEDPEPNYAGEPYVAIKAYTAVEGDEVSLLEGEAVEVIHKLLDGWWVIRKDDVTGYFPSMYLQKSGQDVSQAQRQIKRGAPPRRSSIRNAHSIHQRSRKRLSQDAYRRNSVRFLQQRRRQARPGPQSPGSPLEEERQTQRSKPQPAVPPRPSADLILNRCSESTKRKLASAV
T1 sequence (P19878 whole entry): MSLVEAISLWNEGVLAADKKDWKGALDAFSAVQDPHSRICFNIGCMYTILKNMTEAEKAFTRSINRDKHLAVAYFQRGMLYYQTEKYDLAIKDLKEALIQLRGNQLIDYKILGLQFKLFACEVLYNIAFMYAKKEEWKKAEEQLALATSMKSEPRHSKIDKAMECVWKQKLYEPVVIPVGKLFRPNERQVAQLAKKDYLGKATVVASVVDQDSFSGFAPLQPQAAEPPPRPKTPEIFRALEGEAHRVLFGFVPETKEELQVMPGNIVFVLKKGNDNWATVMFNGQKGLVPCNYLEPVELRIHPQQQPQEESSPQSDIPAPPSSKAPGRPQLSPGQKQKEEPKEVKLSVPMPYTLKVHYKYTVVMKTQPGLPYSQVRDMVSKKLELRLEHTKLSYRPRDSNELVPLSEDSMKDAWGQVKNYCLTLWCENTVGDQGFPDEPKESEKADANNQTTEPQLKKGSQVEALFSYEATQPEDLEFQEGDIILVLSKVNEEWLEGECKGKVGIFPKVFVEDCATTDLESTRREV

| Compound | Inhibitory Activity (NADPH oxidase [1]) | Percent Inhibition (NADPH oxidase [1]; 100 μg/ml peptide) | other results |
| --- | --- | --- | --- |
| KNVFDEAILAALEPPEPKKSRR [CDC42Hs] | Inactive | – | – |
| TISSLFSRLFGKKQ [ARF 27, TISSLFSRLFGKKQ] | – | 91.3% | Percent Inhibition (NADPH oxidase [1]; 27 μg/ml peptide): 55.9% |
| LTQRGLKTVFDE [Rac1 aa161-172, LTQRGLKTVFDE] | Inactive | – | – |
| GTPγS-bound form of RhoA: recombinant Sf9 cell RhoA bound to GTPγS | – | – | reversal of p190 GAP inhibition of NADPH oxidase by added GTP-binding protein (NADPH oxidase [2]; 280 nM p190 GAP, Rac1.GTPγS 30 nM, RhoA.GTPγS 100 nM, Rac2 (Q61L) 10 nM, FIG. 8): did not reverse inhibition |
| EKKKPKKKS [Rap1A aa172-180, EKKKPKKKS] | Active | – | – |
| CPPPVKKRKRK [Rac1 aa178-188, CPPPVKKRKRK] | Active | – | – |
| GLTISSLFSRLFGKKQ [ARF 26, GLTISSLFSRLFGKKQ] | – | 100% | Percent Inhibition (NADPH oxidase [1]; 27 μg/ml peptide): 30.9% |
| GEHAQKHEQALQKLA [ECG 163, GEHAQKHEQALQKLA, reference compound] | Inactive | 8.0% | Percent Inhibition (NADPH oxidase [1]; 200 μg/ml peptide): 5.1% |
| PGKARKKSS [Rap1B aa172-180, PGKARKKSS] | Active | – | – |
| EKLKEKKLTPI [Rac1 aa127-137, EKLKEKKLTPI] | Inactive | – | – |
| GLAQKLLEALQKALLA [ICS4, GLAQKLLEALQKALLA] | Active | 99.8% | Percent Inhibition (NADPH oxidase [1]; 27 μg/ml peptide): 86.8% |
| CPQPTRQQKRA [Rac2 aa178-188, CPQPTRQQKRA] | Active | – | – |
| c1ccc2c(c1)[I+]c1ccccc1-2 [diphenylene iodonium, reference compound] | – | – | inhibition of O2- formation when added after initiation with SDS (NADPH oxidase [2]; added 1.7 or 5 minutes after SDS, p190 GAP 350 nM, DPI 1 μM, FIG. 9): could be inhibited |
| INLKALAALAKKIL-NH2 [Mastoparan] | Active | – | inhibition of NADPH oxidase activity, in words (NADPH oxidase [1]; FIG. 1, dose/response conditions): most dramatic; GDP/GTP exchange on Rac (Rac2 protein): stimulate GDP/GTP exchange; GDP/GTP exchange on Rap1A (Rap1A): stimulate GDP/GTP exchange |
| GELAQKLEQALQKLA [ECG 125, GELAQKLEQALQKLA, reference compound] | Inactive | 23.3% | Percent Inhibition (NADPH oxidase [1]; 200 μg/ml peptide): 34.0% |
| SSLFSRLFGKKQ [ARF 28, SSLFSRLFGKKQ] | – | 87.6% | Percent Inhibition (NADPH oxidase [1]; 27 μg/ml peptide): 43.5% |
| SKFEDLNKRKDT [Gi #2, SKFEDLNKRKDT, reference compound] | Inactive | – | – |
| MGCTVSAEDKAAAER [Gi #5, MGCTVSAEDKAAAER, reference compound] | Inactive | – | – |
